Active and inactive are the calls of the source.
Columns and labels:
[1] = inhibitors of firefly luciferase expression or activity, dose response, H4 neuroglioma cells, luminescence (AID 1990); type: functional, cell-based
[2] = luciferase reporter signal reduction – luminescence, H4-C neuroglioblastoma cells, dose response (AID 2458); type: functional, cell-based;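 further: H4 neuroglioblastoma cells stably carrying a luciferase reporter gene fusion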
[3] = cells; type: functional, cell-based
[4] = inhibitors of SNCA 5'UTR-driven reporter translation, confirmation, H4 neuroglioma cells, luminescence (AID 1988); type: functional, cell-based
[5] = inhibitors of SNCA 5'UTR-driven translation, confirmation, luminescence, H4 neuroglioblastoma cells, dose confirmation (AID 2454); type: functional, cell-based;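 further: H4 neuroglioblastoma cells carrying an alpha-synuclein 5'UTR luciferase reporter; potency for inhibition of the luciferase signal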
[6] = cytotoxicity in HEK-293T cells, dose response, cytotoxicity control for TCR NF-kB inhibitor project, luminescence, T-cell screen hits (AID 489026); type: functional, cell-based;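 further: cells exposed to compound about 14 hours before the viability readout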
[7] = C. albicans growth with fluconazole, confirmation, fluorescence, retest (AID 2467); type: functional, cell-based
[8] = system: Saccharomyces cerevisiae; test: NALP1 inhibitor project selectivity study, Caspase-1/ASC signal blockade IC50 in S. cerevisiae (AID 488863); type: functional, organism-based
[9] = target: NACHT, LRR and PYD domains-containing protein 1 (Homo sapiens, UniProt Q9C000); test: NALP1 inhibitors in yeast, dose response, luminescent (AID 488860); type: functional
[10] = target: C-C chemokine receptor type 6 (Homo sapiens, UniProt P51684); test: CCR6 receptor antagonists, dose response, cell-based, luminescent beta-arrestin readout (AID 504728); type: functional
Sequence of C-C chemokine receptor type 6 (P51684 whole entry): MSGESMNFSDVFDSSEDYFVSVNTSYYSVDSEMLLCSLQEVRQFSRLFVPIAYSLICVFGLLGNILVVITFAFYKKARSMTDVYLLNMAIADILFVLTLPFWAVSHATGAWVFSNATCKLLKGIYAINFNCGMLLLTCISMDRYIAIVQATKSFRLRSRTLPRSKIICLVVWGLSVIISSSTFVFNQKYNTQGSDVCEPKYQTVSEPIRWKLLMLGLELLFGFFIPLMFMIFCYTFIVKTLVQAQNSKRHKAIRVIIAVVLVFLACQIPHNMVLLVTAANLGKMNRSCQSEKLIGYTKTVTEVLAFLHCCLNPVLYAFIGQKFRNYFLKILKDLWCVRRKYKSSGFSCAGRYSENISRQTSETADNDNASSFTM

[11] = target: Beta-galactosidase (Escherichia coli, UniProt Q8VNN2); test: beta-galactosidase enzyme inhibitors and activators, dose response, artefact control for CCR6 antagonist project, biochemical, E. coli enzyme, set 3 (AID 504712); type: functional
[12] = target: T1, Eukaryotic translation initiation factor 2-alpha kinase 3 (Homo sapiens, UniProt Q9NZJ5); test: Dose response cell-based high-throughput screening assay to measure PERK inhibition. [Related pubchem assays: 1416 ]; type: functional
T1 sequence (Q9NZJ5 whole entry): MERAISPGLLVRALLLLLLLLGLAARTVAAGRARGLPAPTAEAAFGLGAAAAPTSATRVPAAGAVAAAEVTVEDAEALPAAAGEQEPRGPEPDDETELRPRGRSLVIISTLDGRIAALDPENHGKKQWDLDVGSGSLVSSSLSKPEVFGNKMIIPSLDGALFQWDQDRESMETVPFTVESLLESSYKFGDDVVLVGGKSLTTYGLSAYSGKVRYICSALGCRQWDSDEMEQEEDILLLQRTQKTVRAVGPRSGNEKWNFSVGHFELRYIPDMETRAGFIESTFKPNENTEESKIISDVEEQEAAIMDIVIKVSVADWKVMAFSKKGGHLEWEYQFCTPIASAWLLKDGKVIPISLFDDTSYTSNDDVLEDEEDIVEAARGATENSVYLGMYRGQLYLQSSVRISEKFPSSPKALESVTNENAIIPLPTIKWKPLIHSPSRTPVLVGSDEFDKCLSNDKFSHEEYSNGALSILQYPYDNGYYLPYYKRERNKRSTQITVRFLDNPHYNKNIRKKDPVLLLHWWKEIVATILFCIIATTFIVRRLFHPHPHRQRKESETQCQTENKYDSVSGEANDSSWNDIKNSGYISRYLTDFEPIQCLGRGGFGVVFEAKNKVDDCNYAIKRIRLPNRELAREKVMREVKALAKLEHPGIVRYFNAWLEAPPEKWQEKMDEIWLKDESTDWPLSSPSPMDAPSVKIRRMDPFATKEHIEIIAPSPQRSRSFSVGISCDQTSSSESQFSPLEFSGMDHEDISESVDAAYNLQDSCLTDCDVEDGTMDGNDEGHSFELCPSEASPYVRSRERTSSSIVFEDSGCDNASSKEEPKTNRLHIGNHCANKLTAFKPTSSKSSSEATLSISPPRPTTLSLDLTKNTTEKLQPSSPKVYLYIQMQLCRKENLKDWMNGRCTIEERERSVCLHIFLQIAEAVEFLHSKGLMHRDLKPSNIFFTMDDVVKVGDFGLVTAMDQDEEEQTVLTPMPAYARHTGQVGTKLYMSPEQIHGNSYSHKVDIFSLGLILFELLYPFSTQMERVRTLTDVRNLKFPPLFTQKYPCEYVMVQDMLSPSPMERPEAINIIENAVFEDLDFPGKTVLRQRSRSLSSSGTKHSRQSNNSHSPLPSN

[13] = target: T1, Eukaryotic translation initiation factor 2-alpha kinase 3; test: Counterscreen assay for PERK inhibitors: Dose response cell-based high throughput screening assay to measure inhibition of PERK at 6 hours. [Related pubchem assays: 1522, 1416 ]; type: functional
[14] = target: Lysosomal acid glucosylceramidase (Homo sapiens, UniProt P04062); test: Dose response cell-based high throughput screening assay to identify enhancers of beta-glucosidase activity. [Related pubchem assays: 784 ]; type: functional
Sequence of Lysosomal acid glucosylceramidase (P04062 whole entry): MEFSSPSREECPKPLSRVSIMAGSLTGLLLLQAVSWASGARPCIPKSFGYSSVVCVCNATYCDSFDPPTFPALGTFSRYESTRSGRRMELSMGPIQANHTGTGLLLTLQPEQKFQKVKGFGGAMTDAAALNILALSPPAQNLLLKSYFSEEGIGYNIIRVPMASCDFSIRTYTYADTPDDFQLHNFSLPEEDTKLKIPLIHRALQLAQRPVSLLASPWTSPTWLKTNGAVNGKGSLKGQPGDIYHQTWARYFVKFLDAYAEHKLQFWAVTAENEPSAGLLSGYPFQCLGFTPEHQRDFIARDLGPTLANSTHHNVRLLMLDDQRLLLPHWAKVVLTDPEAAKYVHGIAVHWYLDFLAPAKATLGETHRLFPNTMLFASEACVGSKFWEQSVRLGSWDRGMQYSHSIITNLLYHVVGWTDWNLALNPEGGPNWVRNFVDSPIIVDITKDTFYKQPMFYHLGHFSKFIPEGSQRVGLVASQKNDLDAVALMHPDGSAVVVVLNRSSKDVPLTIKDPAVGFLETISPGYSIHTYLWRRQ

[15] = target: T2, Neuropeptides B/W receptor type 1 (Homo sapiens, UniProt P48145); test: Fluorescence-based dose response cell-based high throughput screening assay to identify antagonists of the G-protein coupled receptor 7 (GPR7). [Related pubchem assays: 1952 (Screening assay (GPR7 antagonists).), 1880 (Summary AID.)]; type: functional
T2 sequence (P48145 whole entry): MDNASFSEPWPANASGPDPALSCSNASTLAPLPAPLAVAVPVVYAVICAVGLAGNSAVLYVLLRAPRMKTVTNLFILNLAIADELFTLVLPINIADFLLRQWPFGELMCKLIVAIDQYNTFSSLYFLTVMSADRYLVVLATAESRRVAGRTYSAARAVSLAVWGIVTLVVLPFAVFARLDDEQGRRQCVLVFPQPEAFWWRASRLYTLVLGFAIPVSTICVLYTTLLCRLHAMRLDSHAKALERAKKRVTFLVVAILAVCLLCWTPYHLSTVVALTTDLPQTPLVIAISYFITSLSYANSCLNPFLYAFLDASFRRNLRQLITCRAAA

[16] = target: Melanin-concentrating hormone receptor 1 (Homo sapiens, UniProt Q99705); test: Fluorescence-based counterscreen for antagonists of the G-protein coupled receptor 7 (GPR7): cell-based high throughput dose response assay to identify antagonists of the melanin-concentrating hormone receptor 1 (MCHR1).; type: functional
Sequence of Melanin-concentrating hormone receptor 1 (Q99705 whole entry): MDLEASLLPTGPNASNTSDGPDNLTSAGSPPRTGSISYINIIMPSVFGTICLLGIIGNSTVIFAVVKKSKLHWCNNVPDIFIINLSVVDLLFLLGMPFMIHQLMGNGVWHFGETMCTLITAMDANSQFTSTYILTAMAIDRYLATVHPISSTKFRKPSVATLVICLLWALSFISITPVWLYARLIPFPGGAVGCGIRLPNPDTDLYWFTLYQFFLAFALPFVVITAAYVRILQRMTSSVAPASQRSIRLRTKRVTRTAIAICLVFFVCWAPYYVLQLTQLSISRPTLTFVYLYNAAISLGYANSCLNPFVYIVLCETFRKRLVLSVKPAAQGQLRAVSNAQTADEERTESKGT

[17] = target: Heat shock protein HSP 90-alpha (Homo sapiens, UniProt P07900); type: functional, organism-based
[18] = target: T3, Protein Rev (Human immunodeficiency virus type 1 group M subtype B (isolate HXB2)(HIV-1), UniProt P04618); test: inhibitors of Rev binding to RRE RNA, dose response, biochemical, fluorescence polarization, HIV-1 (AID 434976); design: species or system Human immunodeficiency virus 1
T3 sequence (P04618 whole entry): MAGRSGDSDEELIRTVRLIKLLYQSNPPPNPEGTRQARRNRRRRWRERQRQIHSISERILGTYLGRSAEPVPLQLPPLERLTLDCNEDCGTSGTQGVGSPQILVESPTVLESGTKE

[19] = target: T4, Heat shock 70 kDa protein 1A (Homo sapiens, UniProt P0DMV8); test: Hsp70 inhibitors, biochemical, TR-FRET (AID 786)
T4 sequence (P0DMV8 whole entry): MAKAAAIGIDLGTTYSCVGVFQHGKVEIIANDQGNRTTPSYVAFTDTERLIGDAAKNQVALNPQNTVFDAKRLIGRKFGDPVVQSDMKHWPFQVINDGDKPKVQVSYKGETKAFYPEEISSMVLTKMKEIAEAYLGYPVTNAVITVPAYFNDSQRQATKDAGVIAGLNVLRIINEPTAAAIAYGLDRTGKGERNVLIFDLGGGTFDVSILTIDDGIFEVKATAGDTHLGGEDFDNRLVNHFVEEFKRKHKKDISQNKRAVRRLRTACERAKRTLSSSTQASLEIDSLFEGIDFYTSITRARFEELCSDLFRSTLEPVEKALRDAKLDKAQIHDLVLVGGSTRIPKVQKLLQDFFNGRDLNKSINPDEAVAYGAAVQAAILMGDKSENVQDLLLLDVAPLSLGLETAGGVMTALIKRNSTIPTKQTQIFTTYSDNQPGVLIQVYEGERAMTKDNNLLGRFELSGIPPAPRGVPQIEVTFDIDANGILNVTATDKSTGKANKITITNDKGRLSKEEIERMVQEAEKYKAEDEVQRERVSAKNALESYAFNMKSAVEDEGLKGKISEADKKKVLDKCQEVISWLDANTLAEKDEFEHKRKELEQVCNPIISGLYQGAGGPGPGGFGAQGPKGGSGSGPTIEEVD

[20] = target: T5, Female germline-specific tumor suppressor gld-1 (Caenorhabditis elegans, UniProt Q17339); test: inhibitors of GLD-1 binding to TGE RNA, dose response, biochemical, fluorescence polarization, C. elegans (AID 2802);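 further: fluorescence polarization of labeled TGE RNA bound by purified gld-1 protein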
T5 sequence (Q17339 whole entry): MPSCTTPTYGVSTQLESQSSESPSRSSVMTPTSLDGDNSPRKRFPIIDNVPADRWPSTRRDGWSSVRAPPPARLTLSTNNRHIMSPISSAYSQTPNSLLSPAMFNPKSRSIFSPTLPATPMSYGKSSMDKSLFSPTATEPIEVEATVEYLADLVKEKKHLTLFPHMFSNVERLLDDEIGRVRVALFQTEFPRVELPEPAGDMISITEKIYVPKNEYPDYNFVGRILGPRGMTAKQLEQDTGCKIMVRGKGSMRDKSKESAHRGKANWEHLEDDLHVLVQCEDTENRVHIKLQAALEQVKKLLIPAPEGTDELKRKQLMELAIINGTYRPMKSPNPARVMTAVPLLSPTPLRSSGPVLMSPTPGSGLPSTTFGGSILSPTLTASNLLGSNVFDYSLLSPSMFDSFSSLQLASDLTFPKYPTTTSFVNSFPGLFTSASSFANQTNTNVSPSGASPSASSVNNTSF

[21] = target: T6, RNA-binding protein pos-1 (Caenorhabditis elegans, UniProt G5EF15); test: inhibitors of POS-1/mex-3 RNA binding, dose response, biochemical, fluorescence polarization (AID 1964);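 further: purified POS-1 fused to maltose binding protein made in E. coli; potency of compounds blocking POS-1 binding to fluorescent RNA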
T6 sequence (G5EF15 whole entry): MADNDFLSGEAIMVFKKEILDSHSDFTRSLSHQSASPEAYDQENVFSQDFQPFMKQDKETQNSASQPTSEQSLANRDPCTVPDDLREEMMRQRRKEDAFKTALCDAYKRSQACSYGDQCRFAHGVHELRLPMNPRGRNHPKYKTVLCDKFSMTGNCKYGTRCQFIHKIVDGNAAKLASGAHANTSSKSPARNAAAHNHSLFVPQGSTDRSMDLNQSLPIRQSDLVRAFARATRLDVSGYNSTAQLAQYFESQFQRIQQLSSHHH

[22] = target: T4, Heat shock 70 kDa protein 1A; test: Hsp70 inhibitors, probe displacement, primary screen, biochemical, fluorescence polarization (AID 583)
[23] = target: T7, Zinc finger protein mex-5 (Caenorhabditis elegans, UniProt Q9XUB2); test: MEX-5/TCR-2 RNA interaction inhibitors, dose response, biochemical, C. elegans, fluorescence polarization (AID 1960)
T7 sequence (Q9XUB2 whole entry): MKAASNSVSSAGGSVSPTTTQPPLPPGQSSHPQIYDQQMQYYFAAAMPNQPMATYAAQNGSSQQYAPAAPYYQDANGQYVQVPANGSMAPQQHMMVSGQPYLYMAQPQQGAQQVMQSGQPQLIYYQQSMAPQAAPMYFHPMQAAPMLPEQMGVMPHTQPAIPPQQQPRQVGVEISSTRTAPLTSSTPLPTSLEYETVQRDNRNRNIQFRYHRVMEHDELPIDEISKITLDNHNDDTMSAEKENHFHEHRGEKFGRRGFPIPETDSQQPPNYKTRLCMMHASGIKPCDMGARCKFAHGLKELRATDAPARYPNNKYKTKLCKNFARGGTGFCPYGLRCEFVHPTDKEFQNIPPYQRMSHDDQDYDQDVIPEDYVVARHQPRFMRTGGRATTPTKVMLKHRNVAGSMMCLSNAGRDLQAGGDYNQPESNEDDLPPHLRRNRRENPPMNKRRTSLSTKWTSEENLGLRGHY

[24] = target: T8, Polyadenylate-binding protein 1 (Homo sapiens, UniProt P11940); test: PABP1 MLLE–PAM2 interaction inhibitors, dose response, miRNA deadenylation inhibitor project, biochemical, fluorescence polarization, Cy5-PAM2 peptide, secondary (AID 602260); type: functional; conditions: read-out: IC50_Mean
T8 sequence (P11940 whole entry): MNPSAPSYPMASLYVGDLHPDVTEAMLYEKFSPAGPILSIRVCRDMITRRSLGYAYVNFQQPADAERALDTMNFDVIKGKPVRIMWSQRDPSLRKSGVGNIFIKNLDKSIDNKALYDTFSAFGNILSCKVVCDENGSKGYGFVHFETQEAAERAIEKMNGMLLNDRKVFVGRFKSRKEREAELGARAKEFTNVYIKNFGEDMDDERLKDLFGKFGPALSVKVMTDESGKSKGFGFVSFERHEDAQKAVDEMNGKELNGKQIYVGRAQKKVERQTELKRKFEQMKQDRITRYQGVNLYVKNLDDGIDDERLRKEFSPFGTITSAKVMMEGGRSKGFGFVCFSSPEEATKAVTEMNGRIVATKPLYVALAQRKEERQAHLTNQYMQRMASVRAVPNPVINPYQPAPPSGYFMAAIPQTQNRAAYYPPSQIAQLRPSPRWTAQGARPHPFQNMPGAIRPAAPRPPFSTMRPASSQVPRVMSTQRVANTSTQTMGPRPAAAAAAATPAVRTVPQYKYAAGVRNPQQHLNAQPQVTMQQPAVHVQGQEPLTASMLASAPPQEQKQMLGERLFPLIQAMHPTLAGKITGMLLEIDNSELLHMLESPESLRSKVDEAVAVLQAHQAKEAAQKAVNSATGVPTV

[25] = target: T8, Polyadenylate-binding protein 1; test: PABP1 MLLE–PAM2 binding inhibitor potency, dose response, biochemical, fluorescence polarization, FITC-PAM2 peptide (AID 602259); type: functional; conditions: read-out: IC50_Mean
[26] = HepG2 cell cytotoxicity, dose response, cytotoxicity control, ATP luminescence, cherry-pick, set 6 (AID 1053125); type: functional, cell-based
[27] = target: Intestinal-type alkaline phosphatase (Homo sapiens, UniProt P09923); test: Dose Response confirmation of uHTS hits from a small molecule inhibitors of human intestinal alkaline phosphatase via a luminescent assay. [Related pubchem assays (depositor defined):AID2544, AID2574]; type: functional
Sequence of Intestinal-type alkaline phosphatase (P09923 whole entry, the tested form may be a part): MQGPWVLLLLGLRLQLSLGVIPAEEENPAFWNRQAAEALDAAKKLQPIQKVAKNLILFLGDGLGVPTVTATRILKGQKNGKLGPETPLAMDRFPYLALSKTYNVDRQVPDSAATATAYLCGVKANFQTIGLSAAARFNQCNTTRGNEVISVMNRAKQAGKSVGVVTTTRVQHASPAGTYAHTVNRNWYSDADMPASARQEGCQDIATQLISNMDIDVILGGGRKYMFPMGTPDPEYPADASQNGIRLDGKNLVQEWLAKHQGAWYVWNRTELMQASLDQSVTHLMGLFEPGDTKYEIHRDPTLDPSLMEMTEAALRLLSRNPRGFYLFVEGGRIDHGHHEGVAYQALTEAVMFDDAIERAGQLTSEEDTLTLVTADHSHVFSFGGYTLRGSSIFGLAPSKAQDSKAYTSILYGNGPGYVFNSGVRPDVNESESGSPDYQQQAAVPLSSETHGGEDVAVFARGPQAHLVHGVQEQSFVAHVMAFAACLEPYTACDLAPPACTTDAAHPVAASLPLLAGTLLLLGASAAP

[28] = target: NACHT, LRR and PYD domains-containing protein 3 (Homo sapiens, UniProt Q96P20); test: NALP3 inhibitors in yeast, dose response, luminescent (AID 488799); type: functional
[29] = target: T9, Alkaline phosphatase, tissue-nonspecific isozyme (Homo sapiens, UniProt P05186)
T9 sequence (P05186 whole entry): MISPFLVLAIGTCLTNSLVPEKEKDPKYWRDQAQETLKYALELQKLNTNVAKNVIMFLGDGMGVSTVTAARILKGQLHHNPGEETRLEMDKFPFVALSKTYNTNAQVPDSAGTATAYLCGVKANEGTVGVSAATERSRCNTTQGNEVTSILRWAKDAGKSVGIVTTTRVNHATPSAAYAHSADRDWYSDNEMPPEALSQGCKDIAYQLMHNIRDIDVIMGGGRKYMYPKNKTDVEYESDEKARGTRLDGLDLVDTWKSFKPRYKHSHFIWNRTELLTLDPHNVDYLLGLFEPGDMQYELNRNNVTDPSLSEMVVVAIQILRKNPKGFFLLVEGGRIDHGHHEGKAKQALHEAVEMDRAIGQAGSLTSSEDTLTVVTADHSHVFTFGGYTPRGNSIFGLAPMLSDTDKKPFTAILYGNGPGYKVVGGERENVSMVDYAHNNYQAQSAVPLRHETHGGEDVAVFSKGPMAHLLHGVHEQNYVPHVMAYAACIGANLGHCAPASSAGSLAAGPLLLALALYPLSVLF

[30] = target: G-protein coupled receptor 35 (Homo sapiens, UniProt Q9HC97); test: GPR35 antagonists blocking zaprinast-driven arrestin recruitment, primary screen, imaging, U2OS, beta-arrestin-GFP, zaprinast agonist (AID 2058); type: functional;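 further: antagonist potency meaning inhibition of agonist-induced arrestin redistribution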
Sequence of G-protein coupled receptor 35 (Q9HC97 whole entry): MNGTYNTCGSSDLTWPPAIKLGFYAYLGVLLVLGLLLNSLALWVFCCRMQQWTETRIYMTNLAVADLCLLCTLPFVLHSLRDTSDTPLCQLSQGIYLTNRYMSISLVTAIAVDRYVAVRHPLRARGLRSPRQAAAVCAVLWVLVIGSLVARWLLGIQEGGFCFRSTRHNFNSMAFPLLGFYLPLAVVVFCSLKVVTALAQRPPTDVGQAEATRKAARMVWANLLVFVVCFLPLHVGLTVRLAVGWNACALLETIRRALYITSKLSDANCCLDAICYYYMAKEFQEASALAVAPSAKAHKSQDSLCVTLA

[31] = inhibitors of intracellular T. cruzi replication, confirmation, NIH3T3 host cells, beta-gal luminescence (AID 2044); type: functional, cell-based;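 further: intracellular parasites grown in NIH/3T3 mouse fibroblasts as host cells; luminescent beta-galactosidase reporter signal from transgenic T. cruzi replicating inside host cells; inhibitors lower the luminescence signal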
[32] = growth suppression of PTEN-null colon cells, dose response, cell-based, HCT116 PTEN knockout (AID 1047); type: functional;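 further: HCT116 colon tumor cells with PTEN knocked out; cells exposed to compound for 60 hours before readout; potency for loss of cell viability measured by luminescence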
[33] = growth suppression of beta-catenin-knockout colon cells, dose response, cell-based, HCT116, human colon tumor (AID 1045); type: functional;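 further: HCT116 colon tumor cells with beta catenin knocked out; cells exposed to compound for 60 hours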
[34] = system: INS1; test: beta cell apoptosis inhibitors, cytokine rescue, dose response, luminescence, retest (AID 449756); type: functional, cell-based; conditions: Rattus norvegicus;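 further: cell death triggered by IL-1 beta plus TNF-alpha plus IFN-gamma mixture; protective hits raise ATP signal compared with cytokine alone wells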
[35] = system: BJ; test: cytotoxicity toward BJ-TERT fibroblasts, dose response, cell-based, RAS-independent, luminescence (AID 1933); type: functional; conditions: Homo sapiens
[36] = system: BJ; test: cells; type: functional, cell-based; conditions: Homo sapiens
[37] = system: J774.A1; test: Confirmation of image-based Screening Assay for Inhibitors of Phagocytosis. [Related pubchem assays (depositor defined):AID1029, AID1643]; type: functional, cell-based; conditions: Mus musculus
[38] = system: BJ; test: cytotoxicity toward BJ-TERT-LT-ST fibroblasts, dose response, cell-based, RAS-independent, luminescence (AID 1935); type: functional; conditions: Homo sapiens;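 further: BJ fibroblasts immortalized with TERT plus LT and ST oncogenes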
[39] = cytotoxicity toward DRD oncogenic fibroblasts, dose response, cell-based, non-viral oncogenic, luminescence (AID 1934); type: functional; conditions: Homo sapiens

CCOC(=O)C(C)Oc1cccc2c(=O)n(CC(=O)NCc3ccc(F)cc3)ccc12 (stereo not given)
EC50 [1]: 300 nM (active) | EC50 [2]: > 12 µM (not active) | EC50 [3]: 1.67 µM (active) | EC50 [4]: < 100 nM (active) | EC50 [5]: > 12 µM (inconclusive) | IC50 [6]: > 80 µM (inactive)

O=C1/C(=C/c2cccnc2)SC(=S)N1C1CCS(=O)(=O)C1 (stereo not given)
EC50 [7]: 445 nM (active) | IC50 [8]: 49.1 µM (active) | IC50 [9]: 33.8 µM (active)

CC[N+]1(C)CCC(O)(/C=C/c2ccccc2)C(C(=O)/C=C/c2ccccc2)C1 (stereo not given)
IC50 [10]: 39.9 µM (inactive) | IC50 [11]: > 66.6 µM (inactive)

O/N=C/c1ccc2cccc(O)c2n1
EC50 [12]: > 55.7 µM (not active) | EC50 [13]: > 55.7 µM (not active)

CC1(C)CC(=O)N(CC(=O)O)c2ccccc2S1
EC50 [14]: > 50 µM (not active)

Cc1ccc(N2C(=O)C3C4C=CC(CN=C(S)Nc5ccc(Cl)cc5)(O4)C3C2=O)cc1 (stereo not given)
IC50 [15]: 42.8 µM (not active) | IC50 [16]: 18.9 µM (not active) | AC50 [17]: 25.4 µM (active)

Nc1cccc2c1C(=O)N(c1ccccc1)C2=O
IC50 [18]: 7.86 µM (active) | IC50 [19]: > 100 µM (not active) | IC50 [20]: 2.9 µM (active) | EC50 [21]: 17 µM (active) | IC50 [22]: 12.4 µM (active) | EC50 [23]: 10.5 µM (active) | IC50 [24]: > 66 µM (inactive) | IC50 [25]: 24 µM (inactive) | AC50 [26]: > 52 µM (inactive)

O=C(COc1ccccc1Cl)N1CCN(c2ccc([N+](=O)[O-])c(N3CCCCC3)c2)CC1
IC50 [27]: > 100 µM (inactive)

Cc1cccc(C(=O)ONC(=N)Cc2cccc3ccccc23)c1
IC50 [28]: 1.62 µM (active)

CCn1c(/C=N/Nc2ccc(C(=O)O)cc2)nc2ccccc21
EC50 [29]: 88.3 µM (not active)

COc1ccc(/N=C2\S/C(=C\c3ccc(N4CCOCC4)o3)C(=O)N2CCc2c[nH]c3ccccc23)cc1
IC50 [30]: 1.49 µM (active) | EC50 [31]: 335 nM (active) | EC50 [32]: 10 µM (active) | EC50 [33]: 7.54 µM (active) | AC50 [34]: 7.09 µM (active)

Cc1ccc(C(=O)c2cc([N+](=O)[O-])ccc2N2CCOCC2)c(C)c1
EC50 [35]: 764 nM (active) | EC50 [36]: 14.2 µM (active) | IC50 [37]: < 50 nM (inactive) | EC50 [38]: 780 nM (inconclusive) | EC50 [39]: 637 nM (active) | IC50 [6]: > 80 µM (inactive)

Reference: ChEMBL document CHEMBL1201862, “PubChem BioAssay data set” (2004)
